Values of other authors as cited in patent US20100055177A1, “MODIFIED RELEASE COMPOSITION OF LEVETIRACETAM AND PROCESS FOR THE PREPARATION THEREOF” (priority 2008, published 2010).

CC[C@@H](C(N)=O)N1CCCC1=O [levetiracetam, (−)-(S)-(alpha)-ethyl-2-oxo-1-pyrrolidine acetamide]
water solubility: about 1.04 g/ml
